# Laboratory results reported in publication PMC11178787, “Development of a natural product optimization strategy for inhibitors against MraY, a promising antibacterial target” (Nature Communications, 2024).
# What was measured:
# [1] = system: T1, Enterococcus faecalis 26; experiment: microbe, parasite or virus in culture; design: CLSI broth microdilution MIC in MHB-II; conditions: Enterococcus faecalis, 26, 18 h, read-out: MIC
# T1 construct: 26
# Method: (§1) MICs were determined by a microdilution broth method as recommended by the CLSI with MHB-II. For MICs of stable analogues, a 2-fold dilution of each compound was prepared in DMSO at 100-fold of the final concentration. The strains were inoculated with 5 × 10^5 cfu/mL in 96-well plates (each 100 μL/well), and 1 μL of DMSO solutions of the samples were added (contained less than 1% DMSO). The plates were incubated at 37 °C for 18 h and then MICs were determined. MICs of stable analogues in Table 1 were the highest value in three trials. MICs in Supplementary Table 1 were determined in one trial.
# [2] = system: Enterococcus faecium 1; experiment: microbe, parasite or virus in culture; design: CLSI broth microdilution MIC in MHB-II; conditions: Enterococcus faecium, 1, 18 h, read-out: MIC
# Method: as §1
# [3] = system: T2, Enterococcus faecalis 27; experiment: microbe, parasite or virus in culture; design: CLSI broth microdilution MIC in MHB-II; conditions: Enterococcus faecalis, 27, 18 h, read-out: MIC
# T2 construct: 27
# Method: as §1
# [4] = system: T3, Staphylococcus aureus #1958; experiment: microbe, parasite or virus in culture; design: CLSI broth microdilution MIC in MHB-II; conditions: Staphylococcus aureus, 18 h, read-out: MIC
# T3 construct: #1958
# Method: as §1
# [5] = system: T4, Staphylococcus aureus #2933; experiment: microbe, parasite or virus in culture; design: CLSI broth microdilution MIC in MHB-II; conditions: Staphylococcus aureus, 18 h, read-out: MIC
# T4 construct: #2933
# Method: as §1
# [6] = system: T5, Staphylococcus aureus #2110; experiment: microbe, parasite or virus in culture; design: CLSI broth microdilution MIC in MHB-II; conditions: Staphylococcus aureus, 18 h, read-out: MIC
# T5 construct: #2110
# Method: as §1
# [7] = system: T6, Staphylococcus aureus #2334; experiment: microbe, parasite or virus in culture; design: CLSI broth microdilution MIC in MHB-II; conditions: Staphylococcus aureus, 18 h, read-out: MIC
# T6 construct: #2334
# Method: as §1
# [8] = system: Enterococcus faecium 7; experiment: microbe, parasite or virus in culture; design: CLSI broth microdilution MIC in MHB-II; conditions: Enterococcus faecium, 7, 18 h, read-out: MIC
# Method: as §1
# [9] = system: Enterococcus faecium 4; experiment: microbe, parasite or virus in culture; design: CLSI broth microdilution MIC in MHB-II; conditions: Enterococcus faecium, 4, 18 h, read-out: MIC
# Method: as §1
# [10] = system: T7, Staphylococcus aureus #2934; experiment: microbe, parasite or virus in culture; design: CLSI broth microdilution MIC in MHB-II; conditions: Staphylococcus aureus, 18 h, read-out: MIC
# T7 construct: #2934
# Method: as §1
# [11] = system: T8, Enterococcus faecium 10; experiment: microbe, parasite or virus in culture; design: CLSI broth microdilution MIC in MHB-II; conditions: Enterococcus faecium, 10, 18 h, read-out: MIC
# T8 construct: 10
# Method: as §1
# [12] = system: T9, Enterococcus faecium 11; experiment: microbe, parasite or virus in culture; design: CLSI broth microdilution MIC in MHB-II; conditions: Enterococcus faecium, 11, 18 h, read-out: MIC
# T9 construct: 11
# Method: as §1
# [13] = system: Enterococcus faecium 5; experiment: microbe, parasite or virus in culture; design: CLSI broth microdilution MIC in MHB-II; conditions: Enterococcus faecium, 5, 18 h, read-out: MIC
# Method: as §1
# [14] = system: Enterococcus faecium 8; experiment: microbe, parasite or virus in culture; design: CLSI broth microdilution MIC in MHB-II; conditions: Enterococcus faecium, 8, 18 h, read-out: MIC
# Method: as §1
# [15] = system: T10, Enterococcus faecalis 30; experiment: microbe, parasite or virus in culture; design: CLSI broth microdilution MIC in MHB-II; conditions: Enterococcus faecalis, 30, 18 h, read-out: MIC
# T10 construct: 30
# Method: as §1
# [16] = system: T11, Enterococcus faecalis 21; experiment: microbe, parasite or virus in culture; design: CLSI broth microdilution MIC in MHB-II; conditions: Enterococcus faecalis, 21, 18 h, read-out: MIC
# T11 construct: 21
# Method: as §1
# [17] = system: Enterococcus faecium 2; experiment: microbe, parasite or virus in culture; design: CLSI broth microdilution MIC in MHB-II; conditions: Enterococcus faecium, 2, 18 h, read-out: MIC
# Method: as §1
# [18] = system: T12, Staphylococcus aureus #2310; experiment: microbe, parasite or virus in culture; design: CLSI broth microdilution MIC in MHB-II; conditions: Staphylococcus aureus, 18 h, read-out: MIC
# T12 construct: #2310
# Method: as §1
# [19] = system: T13, Enterococcus faecalis 28; experiment: microbe, parasite or virus in culture; design: CLSI broth microdilution MIC in MHB-II; conditions: Enterococcus faecalis, 28, 18 h, read-out: MIC
# T13 construct: 28
# Method: as §1
# [20] = system: T14, Staphylococcus aureus #2932; experiment: microbe, parasite or virus in culture; design: CLSI broth microdilution MIC in MHB-II; conditions: Staphylococcus aureus, 18 h, read-out: MIC
# T14 construct: #2932
# Method: as §1
# [21] = system: Enterococcus faecium 9; experiment: microbe, parasite or virus in culture; design: CLSI broth microdilution MIC in MHB-II; conditions: Enterococcus faecium, 9, 18 h, read-out: MIC
# Method: as §1
# [22] = system: Enterococcus faecium 3; experiment: microbe, parasite or virus in culture; design: CLSI broth microdilution MIC in MHB-II; conditions: Enterococcus faecium, 3, 18 h, read-out: MIC
# Method: as §1
# [23] = system: T15, Enterococcus faecalis 24; experiment: microbe, parasite or virus in culture; design: CLSI broth microdilution MIC in MHB-II; conditions: Enterococcus faecalis, 24, 18 h, read-out: MIC
# T15 construct: 24
# Method: as §1
# [24] = system: T16, Enterococcus faecalis 22; experiment: microbe, parasite or virus in culture; design: CLSI broth microdilution MIC in MHB-II; conditions: Enterococcus faecalis, 22, 18 h, read-out: MIC
# T16 construct: 22
# Method: as §1
# [25] = biological target: MraYSA (S. aureus MraY) (Staphylococcus aureus, UniProt Q2FZ93); experiment: fluorescence assay of dansylated lipid I formation; format: biochemical
# [26] = system: T17, Staphylococcus aureus #2071; experiment: microbe, parasite or virus in culture; design: CLSI broth microdilution MIC in MHB-II; conditions: Staphylococcus aureus, 18 h, read-out: MIC
# T17 construct: #2071
# Method: as §1
# Sequence of MraYSA (S. aureus MraY) (Q2FZ93 whole entry): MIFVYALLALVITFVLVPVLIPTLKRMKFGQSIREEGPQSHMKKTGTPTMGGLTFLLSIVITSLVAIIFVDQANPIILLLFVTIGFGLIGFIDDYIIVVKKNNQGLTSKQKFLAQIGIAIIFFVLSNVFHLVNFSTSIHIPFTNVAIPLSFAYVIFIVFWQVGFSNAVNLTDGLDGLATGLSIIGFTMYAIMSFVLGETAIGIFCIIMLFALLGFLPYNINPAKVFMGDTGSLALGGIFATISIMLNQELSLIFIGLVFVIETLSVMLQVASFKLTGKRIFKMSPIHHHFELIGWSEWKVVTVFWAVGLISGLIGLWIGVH
smiles,measurement,setting,value
"CCCCCCCCCCCCCCCC(=O)N[C@@H](CCCNC(=N)N)C(=O)NCc1ccc(CN[C@H](C(=O)O)[C@H](O[C@@H]2O[C@H](CN)[C@@H](O)[C@H]2O)[C@H]2O[C@@H](n3ccc(=O)[nH]c3=O)[C@H](O)[C@@H]2O)cc1 [compound 3, analogue 3]",MIC,[1],0.13 µg/mL
same,MIC,[2],1 µg/mL
same,MIC,[3],0.25 µg/mL
same,MIC,[4],2 µg/mL
same,MIC,[5],1 µg/mL
same,MIC,[6],2 µg/mL
same,MIC,[7],1 µg/mL
same,MIC,[8],1 µg/mL
same,MIC,[9],0.5 µg/mL
same,MIC,[10],1 µg/mL
same,MIC,[11],1 µg/mL
same,MIC,[12],1 µg/mL
same,MIC,[13],1 µg/mL
same,MIC,[14],0.5 µg/mL
same,MIC,[15],0.25 µg/mL
same,MIC,[16],0.5 µg/mL
same,MIC,[17],1 µg/mL
same,MIC,[18],2 µg/mL
same,MIC,[19],< 0.06 µg/mL
same,MIC,[20],2 µg/mL
same,MIC,[21],0.5 µg/mL
same,MIC,[22],1 µg/mL
same,MIC,[23],0.13 µg/mL
same,MIC,[24],0.13 µg/mL
same,IC50,[25],4 nM
"CCCCCCCCCCCCCCCC(=O)N[C@@H](CCCNC(=N)N)C(=O)Nc1ccc(CN[C@H](C(=O)O)[C@H](O[C@@H]2O[C@H](CN)[C@@H](O)[C@H]2O)[C@H]2O[C@@H](n3ccc(=O)[nH]c3=O)[C@H](O)[C@@H]2O)cc1 [compound 7, analogue 7]",MIC,[1],0.13 µg/mL
same,MIC,[2],1 µg/mL
same,MIC,[3],0.25 µg/mL
same,MIC,[4],1 µg/mL
same,MIC,[5],1 µg/mL
same,MIC,[6],2 µg/mL
same,MIC,[7],2 µg/mL
same,MIC,[8],0.5 µg/mL
same,MIC,[9],0.5 µg/mL
same,MIC,[10],1 µg/mL
same,MIC,[11],1 µg/mL
same,MIC,[12],2 µg/mL
same,MIC,[13],0.5 µg/mL
same,MIC,[14],0.5 µg/mL
same,MIC,[15],0.25 µg/mL
same,MIC,[16],0.5 µg/mL
same,MIC,[17],0.5 µg/mL
same,MIC,[18],2 µg/mL
same,MIC,[26],1 µg/mL
same,MIC,[19],< 0.06 µg/mL
same,MIC,[21],0.25 µg/mL
same,MIC,[22],1 µg/mL
same,MIC,[23],0.13 µg/mL
same,MIC,[24],0.13 µg/mL
same,IC50,[25],1.7 nM
